Measurements: patent publication US20230085307A1, “PYRIDAZINONE COMPOUND AND HERBICIDE” (NISSAN CHEMICAL CORPORATION, priority 2019, published 2023)

Experiments:
redroot pigweed [1] = assay: Test Example 4: herbicidal effect by soil treatment (Table 19, symbol N); format: in vivo, redroot pigweed (Amaranthus retroflexus); conditions: amount of applied herbicide 320 g/ha
In short: (§1)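 Seeds were sown in sterilized diluvial soil and covered with about 1.5 cm of soil. An emulsion formulation diluted with water to a predetermined herbicide amount was sprayed evenly onto the soil surface. Plants grew in a greenhouse at 25° C. to 30° C., and the effect was scored three weeks after application using criteria from an earlier test.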

late watergrass = assay: Test Example 1: herbicidal activity, application before weed generation under submerged conditions (Table 16, symbol A); format: in vivo, late watergrass (Echinochloa oryzicola); conditions: amount of applied herbicide 320 g/ha
In short: (§2)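 Emulsion formulation, water-diluted to set dose, was put onto the flooded surface (4 cm depth, alluvial soil) the same day weeds were sown and 2.5-leaf rice transplanted. After 3 weeks at 25-30 °C under glass, each species was rated 0 (≤5% kill) to 5 (≥90% kill).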

lambsquarters [2] = assay: Test Example 4: herbicidal effect by soil treatment (Table 19, symbol O); format: in vivo, lambsquarters (Chenopodium album); conditions: amount of applied herbicide 320 g/ha
In short: as §1

southern crabgrass [3] = assay: Test Example 4: herbicidal effect by soil treatment (Table 19, symbol F); format: in vivo, southern crabgrass (Digitaria ciliaris); conditions: amount of applied herbicide 320 g/ha
In short: as §1

Japanese bulrush = assay: Test Example 1: herbicidal activity, application before weed generation under submerged conditions (Table 16, symbol B); format: in vivo, Japanese bulrush (Schoenoplectus juncoides); conditions: amount of applied herbicide 320 g/ha
In short: as §2

velvetleaf [4] = assay: Test Example 4: herbicidal effect by soil treatment (Table 19, symbol M); format: in vivo, velvetleaf (Abutilon theophrasti); conditions: amount of applied herbicide 320 g/ha
In short: as §1

southern crabgrass [5] = assay: Test Example 5: herbicidal effect by foliage application, plastic box (Table 20, symbol F); format: in vivo, southern crabgrass (Digitaria ciliaris); conditions: 320 g/ha, foliage application after 14-day growth, evaluated three weeks after application
In short: (§3)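 Plants sown in sterilized diluvial soil and grown 14 days in a greenhouse at 25° C to 30° C, then sprayed on the foliage with the compound's emulsion diluted in water to a predetermined herbicide amount. Injury to weeds and crops scored three weeks after application on a visual rating scale.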

persian speedwell [6] = assay: Test Example 5: herbicidal effect by foliage application, plastic box (Table 20, symbol R); format: in vivo, Persian speedwell (Veronica persica); conditions: 320 g/ha, foliage application after 14-day growth, evaluated three weeks after application
In short: as §3

barnyard grass [7] = assay: Test Example 5: herbicidal effect by foliage application, plastic box (Table 20, symbol H); format: in vivo, barnyard grass (Echinochloa crus-galli); conditions: 320 g/ha, foliage application after 14-day growth, evaluated three weeks after application
In short: as §3

persian speedwell [8] = assay: Test Example 4: herbicidal effect by soil treatment (Table 19, symbol R); format: in vivo, Persian speedwell (Veronica persica); conditions: amount of applied herbicide 320 g/ha
In short: as §1

wild oat [9] = assay: Test Example 5: herbicidal effect by foliage application, plastic box (Table 20, symbol I); format: in vivo, wild oat (Avena fatua); conditions: 320 g/ha, foliage application after 14-day growth, evaluated three weeks after application
In short: as §3

velvetleaf [10] = assay: Test Example 5: herbicidal effect by foliage application, plastic box (Table 20, symbol M); format: in vivo, velvetleaf (Abutilon theophrasti); conditions: 320 g/ha, foliage application after 14-day growth, evaluated three weeks after application
In short: as §3

green foxtail [11] = assay: Test Example 4: herbicidal effect by soil treatment (Table 19, symbol G); format: in vivo, green foxtail (Setaria viridis); conditions: amount of applied herbicide 320 g/ha
In short: as §1

Italian ryegrass [12] = assay: Test Example 4: herbicidal effect by soil treatment (Table 19, symbol K); format: in vivo, Italian ryegrass (Lolium multiflorum); conditions: amount of applied herbicide 320 g/ha
In short: as §1

wild oat [13] = assay: Test Example 4: herbicidal effect by soil treatment (Table 19, symbol I); format: in vivo, wild oat (Avena fatua); conditions: amount of applied herbicide 320 g/ha
In short: as §1

chickweed [14] = assay: Test Example 4: herbicidal effect by soil treatment (Table 19, symbol P); format: in vivo, common chickweed (Stellaria media); conditions: amount of applied herbicide 320 g/ha
In short: as §1

barnyard grass [15] = assay: Test Example 4: herbicidal effect by soil treatment (Table 19, symbol H); format: in vivo, barnyard grass (Echinochloa crus-galli); conditions: amount of applied herbicide 320 g/ha
In short: as §1

barnyard grass [16] = assay: Test Example 3: herbicidal effect by foliage application, Wagner pot (Table 18, symbol H); format: in vivo, barnyard grass (Echinochloa crus-galli); conditions: 320 g/ha
In short: (§4)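 Plants were sown in alluvial soil held under 0.1–0.5 cm standing water and grown 14 days in a greenhouse at 25–30 °C. An emulsifiable formulation, water-diluted to the set dose, was then sprayed onto the foliage, and effects were scored three weeks later using previously defined criteria.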

chickweed [17] = assay: Test Example 5: herbicidal effect by foliage application, plastic box (Table 20, symbol P); format: in vivo, common chickweed (Stellaria media); conditions: 320 g/ha, foliage application after 14-day growth, evaluated three weeks after application
In short: as §3

Italian ryegrass [18] = assay: Test Example 5: herbicidal effect by foliage application, plastic box (Table 20, symbol K); format: in vivo, Italian ryegrass (Lolium multiflorum); conditions: 320 g/ha, foliage application after 14-day growth, evaluated three weeks after application
In short: as §3

oval-leafed pondweed = assay: Test Example 1: herbicidal activity, application before weed generation under submerged conditions (Table 16, symbol C); format: in vivo, oval-leafed pondweed (Monochoria vaginalis); conditions: amount of applied herbicide 320 g/ha
In short: as §2

blackgrass [19] = assay: Test Example 5: herbicidal effect by foliage application, plastic box (Table 20, symbol J); format: in vivo, blackgrass (Alopecurus myosuroides); conditions: 320 g/ha, foliage application after 14-day growth, evaluated three weeks after application
In short: as §3

blackgrass [20] = assay: Test Example 4: herbicidal effect by soil treatment (Table 19, symbol J); format: in vivo, blackgrass (Alopecurus myosuroides); conditions: amount of applied herbicide 320 g/ha
In short: as §1

Chinese sprangletop = assay: Test Example 3: herbicidal effect by foliage application, Wagner pot (Table 18, symbol D); format: in vivo, chinese sprangletop (Leptochloa chinensis); conditions: 320 g/ha
In short: as §4

windgrass [21] = assay: Test Example 5: herbicidal effect by foliage application, plastic box (Table 20, symbol L); format: in vivo, windgrass (Apera spica-venti); conditions: 320 g/ha, foliage application after 14-day growth, evaluated three weeks after application
In short: as §3

lambsquarters [22] = assay: Test Example 5: herbicidal effect by foliage application, plastic box (Table 20, symbol O); format: in vivo, lambsquarters (Chenopodium album); conditions: 320 g/ha, foliage application after 14-day growth, evaluated three weeks after application
In short: as §3

green foxtail [23] = assay: Test Example 5: herbicidal effect by foliage application, plastic box (Table 20, symbol G); format: in vivo, green foxtail (Setaria viridis); conditions: 320 g/ha, foliage application after 14-day growth, evaluated three weeks after application
In short: as §3

windgrass [24] = assay: Test Example 4: herbicidal effect by soil treatment (Table 19, symbol L); format: in vivo, windgrass (Apera spica-venti); conditions: amount of applied herbicide 320 g/ha
In short: as §1

rice flat sedge = assay: Test Example 3: herbicidal effect by foliage application, Wagner pot (Table 18, symbol E); format: in vivo, rice flat sedge (Cyperus iria); conditions: 320 g/ha
In short: as §4

redroot pigweed [25] = assay: Test Example 5: herbicidal effect by foliage application, plastic box (Table 20, symbol N); format: in vivo, redroot pigweed (Amaranthus retroflexus); conditions: 320 g/ha, foliage application after 14-day growth, evaluated three weeks after application
In short: as §3

In the case of COc1ccc2c(-c3c(O)c(C)nn(C)c3=O)c(-c3ccc(OC(F)F)cc3)sc2c1 [3-159], the “Herbicidal effect by soil treatment, N: redroot pigweed” value (redroot pigweed [1]) is reported as 4 (Herbicidal rate of 70% or more and less than 90%), the “Herbicidal effect, A: late watergrass” value (late watergrass) is reported as 0 (Herbicidal rate of 5% or less (almost no effect)) and the “Herbicidal effect by soil treatment, O: lambsquarters” value (lambsquarters [2]) is reported as 4 (Herbicidal rate of 70% or more and less than 90%). For the same molecule, the “Herbicidal effect by soil treatment, F: southern crabgrass” value (southern crabgrass [3]) was 0 (Herbicidal rate of 5% or less (almost no effect)), the “Herbicidal effect, B: Japanese bulrush” value (Japanese bulrush) was 3 (Herbicidal rate of 40% or more and less than 70%) and the “Herbicidal effect by soil treatment, M: velvetleaf” value (velvetleaf [4]) was 1 (Herbicidal rate of 5% or more and less than 20%). For the same molecule, the “herbicidal effect on F: southern crabgrass (evaluation grade 0-5)” value (southern crabgrass [5]) was 0 (Herbicidal rate of 5% or less (almost no effect)), the “herbicidal effect on R: persian speedwell (evaluation grade 0-5)” value (persian speedwell [6]) was 5 (Herbicidal rate of 90% or more (almost completely withered)) and the “herbicidal effect on H: barnyard grass (evaluation grade 0-5)” value (barnyard grass [7]) was 0 (Herbicidal rate of 5% or less (almost no effect)). For the same molecule, the “Herbicidal effect by soil treatment, R: persian speedwell” value (persian speedwell [8]) was 3 (Herbicidal rate of 40% or more and less than 70%), the “herbicidal effect on I: wild oat (evaluation grade 0-5)” value (wild oat [9]) was 0 (Herbicidal rate of 5% or less (almost no effect)) and the “herbicidal effect on M: velvetleaf (evaluation grade 0-5)” value (velvetleaf [10]) was 4 (Herbicidal rate of 70% or more and less than 90%). For the same molecule, the “Herbicidal effect by soil treatment, G: green foxtail” value (green foxtail [11]) was 0 (Herbicidal rate of 5% or less (almost no effect)), the “Herbicidal effect by soil treatment, K: Italian ryegrass” value (Italian ryegrass [12]) was 0 (Herbicidal rate of 5% or less (almost no effect)) and the “Herbicidal effect by soil treatment, I: wild oat” value (wild oat [13]) was 0 (Herbicidal rate of 5% or less (almost no effect)). The “Herbicidal effect by soil treatment, P: chickweed” value (chickweed [14]) was 0 (Herbicidal rate of 5% or less (almost no effect)), the “Herbicidal effect by soil treatment, H: barnyard grass” value (barnyard grass [15]) was 0 (Herbicidal rate of 5% or less (almost no effect)) and the “herbicidal effect on barnyard grass (H)” value (barnyard grass [16]) was 2 (Herbicidal rate of 20% or more and less than 40%). For the same molecule, the “herbicidal effect on P: chickweed (evaluation grade 0-5)” value (chickweed [17]) was 5 (Herbicidal rate of 90% or more (almost completely withered)), the “herbicidal effect on K: Italian ryegrass (evaluation grade 0-5)” value (Italian ryegrass [18]) was 4 (Herbicidal rate of 70% or more and less than 90%) and the “Herbicidal effect, C: oval-leafed pondweed” value (oval-leafed pondweed) was 3 (Herbicidal rate of 40% or more and less than 70%). For the same molecule, the “herbicidal effect on J: blackgrass (evaluation grade 0-5)” value (blackgrass [19]) was 3 (Herbicidal rate of 40% or more and less than 70%), the “Herbicidal effect by soil treatment, J: blackgrass” value (blackgrass [20]) was 0 (Herbicidal rate of 5% or less (almost no effect)) and the “herbicidal effect on Chinese sprangletop (D)” value (Chinese sprangletop) was 0 (Herbicidal rate of 5% or less (almost no effect)). The “herbicidal effect on L: windgrass (evaluation grade 0-5)” value (windgrass [21]) was 0 (Herbicidal rate of 5% or less (almost no effect)), the “herbicidal effect on O: lambsquarters (evaluation grade 0-5)” value (lambsquarters [22]) was 5 (Herbicidal rate of 90% or more (almost completely withered)) and the “herbicidal effect on G: green foxtail (evaluation grade 0-5)” value (green foxtail [23]) was 0 (Herbicidal rate of 5% or less (almost no effect)). The “Herbicidal effect by soil treatment, L: windgrass” value (windgrass [24]) was 0 (Herbicidal rate of 5% or less (almost no effect)), the “herbicidal effect on rice flat sedge (E)” value (rice flat sedge) was 3 (Herbicidal rate of 40% or more and less than 70%) and the “herbicidal effect on N: redroot pigweed (evaluation grade 0-5)” value (redroot pigweed [25]) was 5 (Herbicidal rate of 90% or more (almost completely withered)).
